Values joined by “and” are separate entries in the source; they are usually repeats but may differ in a detail not shown here. Identical values can stand only once.
How the values were obtained:
UTI89 = assay: Chronic cystitis mouse model, bladder titers after oral mannoside treatment; type: in vivo, E. coli (UPEC); host C3H/HeN mouse; details: PO 50 mg/kg, 6 hours posttreatment, relative to PBS
Description: Mice were infected with the uropathogenic E. coli (UPEC) strain UTI89. Animals that established chronic infection were treated at day 12 post infection with 5 doses of 50 mg/kg of Mannoside 8 administered 8 h apart (mice treated with PBS in the same way were included as controls). Mice were sacrificed 48 h post initial dose and bladder titers were enumerated.
In order to determine the therapeutic potential of 6 for treating chronic UTIs, a unique preclinical murine model was adopted. In humans, the ultimate outcome of UPEC infection of the urinary tract ranges from asymptomatic bacteriuria to acute self-limiting infection to chronic/recurrent UTI. Similarly, the outcome of UTI in C3H/HeN mice ranges from self-limiting to long-lasting, chronic cystitis characterized by persistent, high titer bacteriuria (>10^4 colony forming units (CFU)/ml), high titer bacterial bladder burdens at sacrifice >2 weeks post-infection (wpi), chronic inflammation, and urothelial necrosis. […] Thus, C3H/HeN mice were infected with 1×10^7 CFU of UTI89 and mice developing chronic cystitis, as determined by persistent urine titers of […] through 2 weeks post infection (wpi), were PO treated at 2 wpi with 6 at a single dose of 100 or 50 mg/kg to evaluate the ability of mannoside to treat UTI. 6 hours post-treatment bacterial counts in the bladder were enumerated. […]

FimH = FimH (Escherichia coli, UniProt Q1R2J4);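 also: hemagglutination inhibition of guinea pig erythrocytes agglutinated by type 1 piliated uropathogenic E. coli via FimH mannose binding, quantified through serial dilutions of compound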
Description: In some embodiments, activity of the compound is measured using hemmagglutination titer of guinea pig red blood cells. Hemagglutination of guinea pig red blood cells by type1 piliated UPEC is dependent upon FimH mannose binding ability and serial dilutions allow a quantitative analysis.
Biological activity against FimH was evaluated using a guinea pig red blood cell-based hemagglutination (HA) assay (ref) in which the concentration of the mannoside on reducing agglutination by 50% was used as the primary endpoint (50% HA titer).
Hemagglutination of guinea pig red blood cells by type1 piliated UPEC is dependent upon FimH mannose binding ability. Serial dilutions allow a quantitative analysis using this assay.
Hemagglutination assays for mannose-sensitive agglutination of guinea pig red blood cells were performed as previously described.

Question: What does the source list for `CNC(=O)c1cc(C(=O)NC)cc(-c2ccc(O[C@H]3O[C@H](CO)[C@@H](O)[C@H](O)[C@@H]3O)c(C(F)(F)F)c2)c1` [Compound 10, N1,N3-dimethyl-5-[3-(trifluoromethyl)-4-[(2R,3S,4S,5S,6R)-3,4,5-trihydroxy-6-(hydroxymethyl)tetrahydropyran-2-yl]oxy-phenyl]benzene-1,3-dicarboxamide]?
Answer: reduction in bladder bacterial counts (UTI89): 4 log and 3 log; fold more potent in vitro (FimH; 10 relative to 8, Examples 25-29 numbering): 8 fold; HAI (FimH; Examples 25-29 numbering): 8 nM; fold improvement (HAI) (FimH; over butyl-α-D-mannoside): 15,000 fold; fold better (HAI) (FimH; than lead 6, Examples 25-29 numbering): 50 fold
